# In patent US20210186834A1, “TAHITI VANILLA EXTRACT AND 4-[(1E,3S)-3-ETHENYL-3,7-DIMETHYLOCTA-1,6-DIENYL]PHENOL FOR COMBATTING CUTANEOUS AGEING” (PIERRE FABRE DERMO-COSMETIQUE, priority 2018, published 2021):
# Assays:
# Format in all cases: cell-based
# IL8 = test: Expression of IL8 by immunofluorescence after acute UVA stress on normal human fibroblasts; conditions: bakuchiol 0.5 μg/ml, UVA 60 J/cm^2, 24 h after irradiation; P<0.05 versus non-treated conditions
# Protocol: (§1) The fibroblasts are cultured in a standard culture medium for 36 hours, the products to test (vehicle (DMSO), bakuchiol (0.5 μg/ml), vanilla extract (0.05%, p/v) and the combination thereof (same concentrations)) are added to the culture medium one hour before the UVA radiation test. This test consists in a photo-ageing stress: the fibroblasts are irradiated by UVA at a dose of 60 J/cm^2 (Waldmann UVA lamp). A condition without irradiation is also realised. The fibroblasts are next sampled 24 h after irradiation for immunofluorescence analyses. All the experimental conditions are realised with N=3 donors. The fluorescence was quantified using Nikon NIS Element software in order to obtain an average fluorescence per cell and per condition. The protocol used is rigorously the same as that described in example 1. The products tested are the same, the concentrations also. The expression of IL8 is then quantified by immunofluorescence. The treatment of human fibroblasts with acute UVA stress induces a significant increase in the expression of IL8, going from 100% to 5300% (P<0.05) compared to the condition without irradiation. In addition, it appears that the treatment by UVA induces important morphological changes in the fibroblasts, going from a star-shaped model to a spindle-shaped model.
# protein P16 = test: Expression of P16 by immunofluorescence after acute UVA stress on normal human fibroblasts; conditions: bakuchiol 0.5 μg/mL, added 1 h before UVA 60 J/cm^2, sampled 24 h after irradiation, N=3 donors; P=NS versus the non-treated group
# Protocol: The biological model used for this study consists of normal human dermis fibroblasts obtained from healthy donors. The fibroblasts are cultured in a standard culture medium for 36 hours, the products to test (vehicle (DMSO), bakuchiol (0.5 μg/ml), vanilla extract (0.05%, p/v) and the combination thereof (same concentrations)) are added to the culture medium one hour before the UVA radiation test. This test consists in a photo-ageing stress: the fibroblasts are irradiated by UVA at a dose of 60 J/cm^2 (Waldmann UVA lamp). A condition without irradiation is also realised. The fibroblasts are next sampled 24 h after irradiation for immunofluorescence analyses. All the experimental conditions are realised with N=3 donors. The fluorescence was quantified using Nikon NIS Element software in order to obtain an average fluorescence per cell and per condition. The treatment of human fibroblasts with acute UVA stress induces a significant increase in the expression of P16, going from 500 AU to almost 1000 AU, P<0.001, versus the non-stimulated condition. […] The statistics are produced using a one way variance analysis (one-way ANOVA) followed by a Dunnett test.
# normal human fibroblasts = test: Morphological changes of fibroblasts induced by exposure to UVA; conditions: bakuchiol 0.5 μg/ml, vanilla extract 0.05% (p/v), combination at the same concentrations; UVA 60 J/cm^2
# Protocol: as §1
structure (smiles),measurement,setting,value
"C=C[C@@](C)(/C=C/c1ccc(O)cc1)CCC=C(C)C [bakuchiol, 4-[(1E,3S)-3-ethenyl-3,7-dimethylocta-1,6-dienyl]phenol]",decrease of the expression of IL8 following exposure to UVA,IL8,88.3%
same,reduction of the expression of P16 following irradiation,protein P16,−44.4%
same,effect on morphological changes (star-shaped to spindle-shaped) induced by exposure to UVA,normal human fibroblasts,prevention of the morphological changes
